# Legend:
# [1] = tested on: hyperlipidaemia caused by TRITON 1339; assay: test for the hyperlipidaemia caused by TRITON 1339; type: in vivo; conditions: rats, Triton test after oral administration for six days, 0.5 millimol per kilogram; for HDL cholesterol: Control 0.7 ± 0.1, Triton 0.8 ± 0.1; for Triglycerides: Control 1 ± 0.3, Triton 10 ± 7; for Total cholesterol: Control 2 ± 0.15, Triton 9 ± 3; for Total lipids: Control 3.5 ± 0.4, Triton 20 ± 10
# Description: The Table below summarizes the results of the pharmacological studies carried out especially by means of the test for the hyperlipidaemia caused by TRITON 1339. The experimental protocol was that published by J. C. […] et al. (Gaz. Med. France, 3rd inter. coll. 1982, Dijon, 18-22). The tests are performed on groups of 7 rats weighing from 280 to 290 g. The Triton test is carried out after oral administration for six days at a rate of 0.5 millimol per kilogram of body weight. The following lipid parameters are measured: total cholesterol, triglycerides, total lipids and HDL cholesterol.
# [2] = target: T1, 3-hydroxy-3-methylglutaryl-CoA reductase (Rattus norvegicus, UniProt P51639); assay: inhibition of 3-hydroxy-3-methylglutaryl-CoA reductase activity (method of Kuroda et al.); type: biochemical; conditions: concentration for 50% inhibition of 3-hydroxy-3-methylglutaryl-CoA reductase activity
# T1 construct: from tissue
# T1 sequence (P51639 1-887): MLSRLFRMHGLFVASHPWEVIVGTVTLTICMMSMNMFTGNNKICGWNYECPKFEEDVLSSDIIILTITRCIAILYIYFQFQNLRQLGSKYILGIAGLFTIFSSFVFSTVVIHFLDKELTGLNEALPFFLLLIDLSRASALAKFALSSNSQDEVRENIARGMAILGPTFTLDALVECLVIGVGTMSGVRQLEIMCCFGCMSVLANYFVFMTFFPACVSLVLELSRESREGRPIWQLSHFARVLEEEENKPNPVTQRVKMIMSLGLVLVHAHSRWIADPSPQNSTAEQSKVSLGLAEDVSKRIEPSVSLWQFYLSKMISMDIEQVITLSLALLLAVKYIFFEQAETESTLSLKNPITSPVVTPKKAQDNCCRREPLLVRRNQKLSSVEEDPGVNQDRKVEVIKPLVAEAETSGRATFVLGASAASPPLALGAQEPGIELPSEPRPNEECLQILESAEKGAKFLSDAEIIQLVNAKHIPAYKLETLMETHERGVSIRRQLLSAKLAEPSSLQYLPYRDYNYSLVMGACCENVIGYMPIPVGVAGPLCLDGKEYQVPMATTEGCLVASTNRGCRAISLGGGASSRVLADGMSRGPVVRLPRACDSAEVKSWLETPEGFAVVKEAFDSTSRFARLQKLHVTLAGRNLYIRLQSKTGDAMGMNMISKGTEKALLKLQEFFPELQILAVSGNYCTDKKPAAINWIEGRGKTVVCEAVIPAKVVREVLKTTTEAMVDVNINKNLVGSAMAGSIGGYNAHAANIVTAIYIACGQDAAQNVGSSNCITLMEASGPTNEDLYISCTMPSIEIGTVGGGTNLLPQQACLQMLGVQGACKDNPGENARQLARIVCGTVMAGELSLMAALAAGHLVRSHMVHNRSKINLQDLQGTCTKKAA
# Description: The biosynthesis of cholesterol in an isolated enzymatic system or in a cell culture from organs removed from experimental animals is inhibited by limiting the activity of the enzyme 3-hydroxy-3-methylglutaryl-CoA reductase.
# The inhibitory activity of the products according to the present invention was determined by the method of Kuroda et al. (Biochemica et Biophysica Acta, vol. 486, pp. 70-81 (1977)), which is a modification of the method of Shapiro et al. (Analytical Biochemistry, vol. 31, pp. 383-390 (1969)). The results are summarized in Table II, where IC50 is the concentration of product in the experimental medium which is necessary to achieve a 50% inhibition of the 3-hydroxy-3-methylglutaryl-CoA reductase activity, expressed in nanomol.
# HMG-CoA red. = HMG-CoA red. activity "ex vivo" in liver microsomes after chronic intraperitoneal administration to rats; parameters: Mevalonate formed: unit not given here; conditions: 50 mg/kg for 6 days; for Mevalonate formed: Control 17; for % inhibition: inhibition of HMG-CoA red. activity, Control 0
# Description: The inhibitory activity of the products according to the present invention was determined by the method of Kuroda et al. (Biochemica et Biophysica Acta, vol. 486, pp. 70-81 (1977)), which is a modification of the method of Shapiro et al. (Analytical Biochemistry, vol. 31, pp. 383-390 (1969)). […] The doses administered were 50 mg/kg for 6 days; six rats were used in each series; they are sacrificed without anaesthesia and the liver microsomes are isolated for the assay, which is performed according to the above-mentioned protocol.
IC50 [2] [nM],SMILES,HDL cholesterol [1] [mmol/L],Triglycerides [1] [mmol/L],Total cholesterol [1] [mmol/L],Total lipids [1] [g/L],Mevalonate formed (HMG-CoA red.),% inhibition (HMG-CoA red.) [%]
37.2,"C[C@@H]1C[C@H](OC(=O)C(C)(C)Oc2ccc(C(=O)c3ccc(Cl)cc3)cc2)CC(C)(C)C1 (relative stereo) [Example 2, (CIS) 3,3,5-TRIMETHYLCYCLOHEXYL 2-(4-(4-CHLOROBENZOYL)PHENOXY)-2-METHYLPROPIONATE]",2.1 ± 0.5,0.5 ± 0.15,3.0 ± 0.4,3.6 ± 0.2,7.3,57
30.1,"Cc1ccc(C)c(OCCCC(C)(C)C(=O)O[C@H]2C[C@@H](C)CC(C)(C)C2)c1 (relative stereo) [Example 5, (CIS) 3,3,5-TRIMETHYLCYCLOHEXYL 2-(3-(2,5-DIMETHYLPHENOXY)PROPYL)-2-METHYLPROPIONATE]",1.0 ± 0.3,2.0 ± 0.3,5.0 ± 0.8,3.0 ± 0.4,6.71,60
42.5,"C[C@H]1C[C@H](OC(=O)C(C)(C)Oc2ccc(-c3ccccc3)cc2)CC(C)(C)C1 (relative stereo) [Example 7, (TRANS) 3,3,5-TRIMETHYLCYCLOHEXYL 2-(4-PHENYLPHENOXY)-2-METHYLPROPIONATE]",1.5 ± 0.4,1.1 ± 0.5,2.2 ± 0.4,3.0 ± 0.5,,
